Laboratory results as given in patent US20250296971A1, “GASTRIC INHIBITORY PEPTIDE RECEPTOR LIGANDS” (priority 2021, published 2025).
Where two headings read alike, the source gives them in different places. *1 amine or outer side, *2 acyl side, *3 side chain or, on linkers, in order; H or OH if unused. Where a SMILES comes first, the peptide text is derived from it. Bridges are numbered along the chain shown (N, C = ends). [ ]: non-standard residue; d: D form. The star is where a group is joined. X20 = O=C(CC[C@H](NC(=O)CN1CCN2CCN3CCN(CC1)CC(=O)[O][Ga]([O]C(=O)C2)[O]C(=O)C3)C(=O)*)NC[C@H](O)[C@@H](O)[C@H](O)[C@H](O)CO; X5 = NC(=O)[C@H](CCCCNC(=O)CN1CCN(CC(=O)O)CCN(CC(=O)O)CCN(CC(=O)O)CC1)NC(=O)CCC(=O)NCCCOCCOCCOCCCN*; X3 = O=C(O)CN1CCN(CC(=O)O)CCN(CC(=O)NCCCOCCOCCOCCCN*)CCN(CC(=O)O)CC1; NH(1-deoxy-D-glucityl) = OC[C@@H](O)[C@@H](O)[C@H](O)[C@@H](O)CN*; Pro(trans-4-NH2) = O=C([C@@H]1C[C@@H](N[*:3])CN1[*:1])[*:2]; DOTA = O=C(O)CN1CCN(CC(=O)O)CCN(CC(=O)*)CCN(CC(=O)O)CC1; Trp(5-Cl) = N[C@@H](Cc1c[nH]c2ccc(Cl)cc12)C(=O)O; Pyridine(2,6-diCH2) = c1cc(C[*:1])nc(C[*:2])c1; NMeW = CN[C@@H](Cc1c[nH]c2ccccc12)C(=O)O; Pro(4R-NH2) = N[C@H]1CN[C@H](C(=O)O)C1; 1Nal = N[C@@H](Cc1cccc2ccccc12)C(=O)O; mXylylene = c1cc(C[*:1])cc(C[*:2])c1; Glutaryl = O=C(CCCC(=O)[*:2])[*:1]; Hyp = O=C(O)[C@@H]1C[C@@H](O)CN1; X1 = O=C(CN1CCC(N[*:1])CC1)[*:2]; Suc = O=C(CCC(=O)[*:2])[*:1]; Api = NC1(C(=O)O)CCNCC1; Thp = NC1(C(=O)O)CCOCC1; Aib = CC(C)(N)C(=O)O

Biological target: T1, GIPR (CHO-K1-hGIPR cells) (Homo sapiens, UniProt P48546)
T1 construct: host or cells: CHO-K1
T1 sequence (P48546 22-466): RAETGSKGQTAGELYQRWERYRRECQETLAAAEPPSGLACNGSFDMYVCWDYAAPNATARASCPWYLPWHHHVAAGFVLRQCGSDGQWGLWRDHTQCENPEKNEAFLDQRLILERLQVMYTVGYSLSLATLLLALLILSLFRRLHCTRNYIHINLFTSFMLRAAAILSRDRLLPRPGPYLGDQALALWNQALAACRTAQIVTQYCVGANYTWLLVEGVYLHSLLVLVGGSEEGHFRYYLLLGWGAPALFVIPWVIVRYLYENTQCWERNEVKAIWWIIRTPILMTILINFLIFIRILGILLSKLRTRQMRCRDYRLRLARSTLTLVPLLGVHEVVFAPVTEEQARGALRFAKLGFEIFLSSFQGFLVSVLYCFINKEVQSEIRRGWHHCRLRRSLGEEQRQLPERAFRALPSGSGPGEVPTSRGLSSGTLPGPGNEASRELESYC
Assay: FACS binding assay
In short: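 Read-out: flow cytometric median fluorescence intensity, APC/Cy5 channel, plotted vs peptide conc.; 4PL fit → EC50/pEC50 or IC50/pIC50. Cells: CHO-K1-hGIPR, Accutase-detached, 500.000/mL in PBS + 1% FCS. Detection: APC-streptavidin 1 μg/mL, 30 min, on ice.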

[1] = competition with 20 nM GIP-057, 4° C. for 1 hour, read-out: pIC50 Category (converted)

SMILES | IC50 [1] [nM] | other results
CC[C@H](C)[C@@H]1NC(=O)[C@H](CC(C)C)NC(=O)C2(CCN(C(=O)[C@H](CCC(=O)NC[C@H](O)[C@@H](O)[C@H](O)[C@H](O)CO)NC(=O)CN3CCN4CCN5CCN(CC3)CC(=O)[O][Ga]([O]C(=O)C4)[O]C(=O)C5)CC2)NC(=O)[C@@H](NC(=O)[C@@H](CC(C)C)NC(=O)[C@H](CCC(=O)O)NC(=O)[C@@H]2C[C@@H](N)CN2C(=O)[C@H](Cc2c[nH]c3ccc(Cl)cc23)NC(=O)[C@H](Cc2c[nH]c3ccccc23)NC(=O)[C@H](CC(=O)O)NC(=O)CN2CCC(NC(=O)CCCC(=O)NC[C@H](O)[C@@H](O)[C@H](O)[C@H](O)CO)CC2)CSCc2cccc(n2)CSC[C@@H](C(=O)NC2CCN(CC(=O)N[C@H](CCC(=O)NC[C@H](O)[C@@H](O)[C@H](O)[C@H](O)CO)C(N)=O)CC2)NC1=O [GIP-059, AGLU-Glutar-APAc-Asp-Trp-5Clw-Tap-Glu-leu-[Cys(2Lut)-Apc(GaDOTA-glu(AGLU))-Leu-Ile-Cys]-APAc-glu(AGLU)-NH2] ({NH(1-deoxy-D-glucityl)-Glutaryl}-[X1]DW[Trp(5-Cl)][Pro(4R-NH2)]E[dL]C[Api](X20)LIC[X1][dE](NH(1-deoxy-D-glucityl))-NH2; linker 8-12 via Pyridine(2,6-diCH2)) | – | IC50 (pIC50 Category, competition with 20 nM GIP-057, 4° C., 1 hour): < 10 nM
CC[C@H](C)[C@@H]1NC(=O)[C@H](CC(C)C)NC(=O)C(C)(C)NC(=O)[C@@H](NC(=O)[C@H](CC(C)C)NC(=O)[C@H](CCC(=O)O)NC(=O)[C@@H]2CCCN2C(=O)[C@H](Cc2cccc3ccccc23)NC(=O)[C@H](Cc2c[nH]c3ccccc23)NC(=O)CCC(=O)O)CSCc2cccc(c2)CSC[C@@H](C(=O)NCCCOCCOCCOCCCNC(=O)CCC(=O)N[C@@H](CCCCNC(=O)CN2CCN(CC(=O)O)CCN(CC(=O)O)CCN(CC(=O)O)CC2)C(N)=O)NC1=O [GIP-085, HO-Succinyl-Trp-1Ni-Pro-Glu-Leu-[Cys(3MeBn)-Aib-Leu-Ile-Cys]-Ttds-Lys(DOTA)-NH2] (Suc-W[1Nal]PELC[Aib]LIC-X5; linker 6-10 via mXylylene) | – | IC50 (competition with 20 nM GIP-057, 4° C., 1 hour, read-out: pIC50 Category (converted)): < 10 nM
CC[C@H](C)[C@@H]1NC(=O)[C@H](CC(C)C)NC(=O)[C@@H](C)NC(=O)[C@@H](NC(=O)[C@@H](CC(C)C)NC(=O)[C@H](CCC(=O)O)NC(=O)[C@@H]2CCCN2C(=O)[C@H](Cc2c[nH]c3ccccc23)NC(=O)[C@H](Cc2c[nH]c3ccccc23)NC(=O)[C@H](CC(=O)O)NC(=O)CCC(=O)NCCCOCCOCCOCCCNC(=O)CN2CCN(CC(=O)O)CCN(CC(=O)O)CCN(CC(=O)O)CC2)CSCc2cccc(c2)CSC[C@@H](C(N)=O)NC1=O [GIP-268, DOTA-Ttds-Asp-Trp-Trp-Pro-Glu-leu-[Cys(3MeBn)-ala-Leu-Ile-Cys]-NH2] ({X3-Suc}-DWWPE[dL]C[dA]LIC-NH2; linker 7-11 via mXylylene) | 100 to 794 | –
CC[C@H](C)[C@@H]1NC(=O)[C@H](CC(C)C)NC(=O)C(C)(C)NC(=O)[C@@H](NC(=O)[C@H](CC(C)C)NC(=O)[C@H](CCC(=O)O)NC(=O)[C@@H]2CCCN2C(=O)[C@H](Cc2c[nH]c3ccccc23)N(C)C(=O)[C@H](Cc2c[nH]c3ccccc23)NC(=O)[C@H](CC(=O)O)NC(C)=O)CSCc2cccc(c2)CSC[C@@H](C(=O)NCCCOCCOCCOCCCNC(=O)CCC(=O)N[C@@H](CCCCNC(=O)CN2CCN(CC(=O)O)CCN(CC(=O)O)CCN(CC(=O)O)CC2)C(N)=O)NC1=O [GIP-289, Ac-Asp-Trp-Nmw-Pro-Glu-Leu-[Cys(3MeBn)-Aib-Leu-Ile-Cys]-Ttds-Lys(DOTA)-NH2] (Ac-DW[NMeW]PELC[Aib]LIC-X5; linker 7-11 via mXylylene) | > 1000 | –

The next lines start with results.

IC50 [1] [nM] | SMILES | other results
< 10 | CC[C@H](C)[C@@H]1NC(=O)[C@H](CC(C)C)NC(=O)C2(CCOCC2)NC(=O)[C@@H](NC(=O)[C@@H](CC(C)C)NC(=O)[C@H](CCC(=O)O)NC(=O)[C@@H]2C[C@@H](O)CN2C(=O)[C@H](Cc2c[nH]c3ccc(Cl)cc23)NC(=O)[C@H](Cc2c[nH]c3ccccc23)NC(=O)[C@@H](CC(=O)O)NC(C)=O)CSCc2cccc(n2)CSC[C@@H](C(N)=O)NC1=O [GIP-381, Ac-asp-Trp-5Clw-Hyp-Glu-leu-[Cys(2Lut)-Thp-Leu-Ile-Cys]-NH2] (Ac-[dD]W[Trp(5-Cl)][Hyp]E[dL]C[Thp]LIC-NH2; linker 7-11 via Pyridine(2,6-diCH2)) | –
10 to 79.4 | CC(=O)N[C@@H](CC(=O)O)C(=O)N[C@@H](Cc1c[nH]c2ccccc12)C(=O)N[C@@H](Cc1c[nH]c2ccc(Cl)cc12)C(=O)N1C[C@H](NC(=O)CN2CCN(CC(=O)O)CCN(CC(=O)O)CCN(CC(=O)O)CC2)C[C@H]1C(=O)N[C@@H](CCC(=O)O)C(=O)N[C@H](CC(C)C)C(=O)N[C@H]1CSCc2cccc(n2)CSC[C@@H](C(N)=O)NC(=O)[C@H](Cc2ccccc2)NC(=O)[C@H](CC(C)C)NC(=O)C2(CCOCC2)NC1=O [GIP-391, Ac-Asp-Trp-5Clw-Tap (DOTA)-Glu-leu-[Cys(2Lut)-Thp-Leu-Phe-Cys]-NH2] (Ac-DW[Trp(5-Cl)][Pro(trans-4-NH2)](DOTA)E[dL]C[Thp]LFC-NH2; linker 7-11 via Pyridine(2,6-diCH2)) | –
